The text below walks through data of patent US20060258581A1, “Methods and composition for derepressions of IAP-inhibited caspase” (priority 2001, published 2006).

Like-named read-outs stand apart in the source and are kept apart here. Where a SMILES comes first, the peptide text is derived from it. Where no end group is shown, it is not given here. [ ]: non-standard residue; d: D form. The star is where a group is joined. Phe(4-Cl) = N[C@@H](Cc1ccc(Cl)cc1)C(=O)O; dPhe(4-Cl) = N[C@H](Cc1ccc(Cl)cc1)C(=O)O; dPhe(4-F) = N[C@H](Cc1ccc(F)cc1)C(=O)O; 2Nal = N[C@@H](Cc1ccc2ccccc2c1)C(=O)O; d2Nal = N[C@H](Cc1ccc2ccccc2c1)C(=O)O; Fmoc = O=C(OCC1c2ccccc2-c2ccccc21)*; 2Thi = N[C@@H](Cc1cccs1)C(=O)O; Cha = N[C@@H](CC1CCCCC1)C(=O)O

In series [1] the target is XIAP (Homo sapiens, UniProt P98170). Nature of the series: SMAC binding/competition assay: biotinylated SMAC 7-mer on NeutrAvidin plates, GST-XIAP detected by anti-GST. Particulars: in words. How it is done: Peptide compounds containing unnatural amino acids in the 792 series, 792-33 and 792-35 (see FIG. 12 and 20 and Example XI), and an active compound in the TPI 1332 series, TPI 1332-69, were tested for binding activity in the SMAC binding assay as described above in Example X. For this assay, biotinylated SMAC 7-mer peptide (50 ng) was bound to 96 well plates coated with NeutrAvidin (Pierce, Rockford, Ill.) at 1 mg/ml in 100 μl per well of 50 mM HEPES pH 7.4, 100 mM NaCl 1 mM EDTA, 10% sucrose, 0.1% CHAPS, 10 mM DTT.

For series [2], the system named is ALVA31 prostate cancer cells. Description: ALVA31 prostate cancer cell viability (XTT dye-reduction, trypan blue). The format is cell-based. The conditions noted are these: 24 hrs; for cell viability, compound alone: peptides 40 μM, VP-16 100 μM; for tumor cell killing, combination with VP-16: peptide 40 μM with VP-16 100 μM. How it is done: The in vivo effects of TPI 792-33 or TPI 792-35, either individually or in combination with the cytotoxic anticancer drug VP-16 (etoposide), on derepression of XIAP-inhibited caspase and viability of ALVA31 cells was determined as follows. ALVA31 prostate cancer cells were seeded onto 96 well plates (10^4 cells/well) in 100 μL RPMI containing 2.5% fetal bovine serum (FBS). […] After another 24 hrs-incubation, cell viability was measured by the XTT dye-reduction assay (Roche, Molecular Biochemicals; Indianapolis, Ind.) and trypan blue dye exclusion assay.
In general terms: Tetrazolium dyes change colour on reduction, which living cells bring about.

The target in series [3] is full length XIAP (Homo sapiens, UniProt P98170). Description: Potency of IAP antagonists in vitro (Table VIII; caspase derepression / SMAC competition with full length XIAP). Particulars: for Relative Potency (fold versus SMAC peptide): SMAC AVPI tetrapeptide = 1.0; for EC50: amount of compound necessary to restore caspase-3 activity to 50% of Vmax.
Series [4] has as its target T1, XIAP-inhibited caspase-3 (Homo sapiens, UniProt P98170).
T1 construct: in a caspase derepression assay using full length XIAP; made in house; host or cells: bacteria
Nature of the series: IAP derepression assay: Ac-DEVD-AFC hydrolysis by caspase-3 in the presence of GST-XIAP. The class given is biochemical. The conditions noted are these: for activity in the caspase derepression assay using full length XIAP: in words; for Activity* (relative caspase-3 activity: Vmax in the presence of compound / Vmax of controls having caspase-3 and XIAP): XIAP derepression assay; for reversing XIAP-mediated suppression of caspase 3: 50 μg/ml, full length XIAP. How it is done:
The ratio of Vmax for hydrolysis of Ac-DEVD-AFC in the presence and absence of the candidate mixture was calculated and used to identify those that contain an agent that derepresses an IAP-inhibited caspase.
Each mixture was aliquoted in a 25 microliter volume and in duplicate to a well of a 96 well microtiter plate. […] Fluorescence of liberated AFC was immediately detected from each well for 30 minutes at 30 second intervals. The Vmax for hydrolysis of AC-DEVD-AFC from each well was measured using the softmax software package.

The test system of series [5] is Jurkat leukemia cells. Description: Jurkat leukemia cell death, Annexin V/propidium iodide flow cytometry. The format is cell-based. The conditions noted are these: for cells killed: one day treatment. How it is done: The following assay was used to test the ability of individual compounds from the TPI 1396 and TPI 1391 libraries to induce apoptosis of cultured tumor cell lines. Each of the compounds listed in Table IX was individually added to Jurkat leukemia cells (6.25×10^5 cells/mL) in RPMI containing 2.5% FBS at various concentrations for 20 hours. After incubation, cells were washed and stained with FITC-conjugated Annexin V antibody and propidium iodide (Biovision; Mountain View, Calif.). Cells were incubated for 20 minutes at room temperature in the dark and fluorescence was measured by flow cytometry (FACScan, Immunocytometry system; Becton-Dickinson; San Jose, Calif.). Cells staining positive for Annexin V were deemed non-viable.
The TPI I396-34 and TPI 1391-28 compounds were further tested as set forth below.
Background: In flow cytometry, cells or beads pass a laser one at a time.

Series [6] concerns normal bone marrow mononuclear cells. Nature of the series: Normal bone marrow mononuclear cells versus Jurkat, Annexin V, 20 hours. The class given is cell-based. Particulars: 5 μM. How it is done:
After incubation, cells were washed, stained with FITC-conjugated Annexin V antibody and propidium iodide, and fluorescence measured by flow cytometry as described above.

T1 sequence (P98170 whole entry): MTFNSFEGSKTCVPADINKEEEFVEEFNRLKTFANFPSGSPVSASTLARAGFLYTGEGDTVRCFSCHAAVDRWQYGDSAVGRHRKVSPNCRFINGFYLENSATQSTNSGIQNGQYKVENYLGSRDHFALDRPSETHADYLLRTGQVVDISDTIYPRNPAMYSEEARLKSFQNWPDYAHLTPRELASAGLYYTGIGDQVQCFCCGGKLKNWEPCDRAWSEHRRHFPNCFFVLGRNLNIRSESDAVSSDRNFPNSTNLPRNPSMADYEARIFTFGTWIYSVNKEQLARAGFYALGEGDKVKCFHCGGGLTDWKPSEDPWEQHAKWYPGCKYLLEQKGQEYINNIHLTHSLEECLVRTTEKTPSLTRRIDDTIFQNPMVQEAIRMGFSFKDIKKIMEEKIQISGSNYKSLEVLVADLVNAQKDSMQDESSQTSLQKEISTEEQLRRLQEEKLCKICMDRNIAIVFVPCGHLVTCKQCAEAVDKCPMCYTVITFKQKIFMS
full length XIAP, sequence (P98170 whole entry): as above
XIAP, sequence (P98170 whole entry): as above

As to `N[C@@H](Cc1cccs1)C(=O)N[C@@H](Cc1ccc2ccccc2c1)C(=O)N[C@@H](Cc1ccc(Cl)cc1)C(=O)N[C@@H](CCCCNC(=O)OCC1c2ccccc2-c2ccccc21)C(=O)O` [TPI 792-33, L-3-(2-thienyl)-alanyl-L-(2-naphthyl)-alanyl-L-p-chloro-phenylalanyl-L-(e-fluorenylmethyloxycarbonyl)-lysine] (H-[2Thi][2Nal][Phe(4-Cl)]K(Fmoc)-OH), in series [1], the “competition with XIAP binding to the SMAC peptide (SMAC competition assay)” value is listed as “activity”. Further, in series [2], the “cell viability, compound alone” value is reported as “reduced viability of these prostate cancer cells by nearly half” and the “tumor cell killing, combination with VP-16” value is “more potent tumor cell killing compared to VP-16 alone”. In addition, the “Relative Potency (fold versus SMAC peptide)” value in series [3] was found to be 5.2. In series [4], the “LC (lowest concentration with a ratio of 2 or higher in the derepression assay)” value stood at 0.4 micrograms per milliliter and the “activity in the caspase derepression assay using full length XIAP” value is reported as “activity”. In addition, the LC (lowest concentration with a ratio of 2 or higher in the derepression assay) in series [4] (tested at 0.4, 2, 10 and 50) is 0.4 µg/mL.
Turning to `N[C@@H](Cc1cccs1)C(=O)N[C@@H](Cc1ccc2ccccc2c1)C(=O)N[C@H](CCCCNC(=O)OCC1c2ccccc2-c2ccccc21)C(=O)N[C@@H](CCCCNC(=O)OCC1c2ccccc2-c2ccccc21)C(=O)O` [TPI 792-35, L-3-(2-thienyl)-alanyl, L-(2-naphthyl)-alanyl-D-(e-fluorenylmethyloxycarbonyl)-lysyl-L-(e-fluorenylmethyloxycarbonyl)-lysine] (H-[2Thi][2Nal][dK](Fmoc)K(Fmoc)-OH), in series [1], the “competition with XIAP binding to the SMAC peptide (SMAC competition assay)” value was “activity”. Further, in series [2], the “cell viability, compound alone” value was “reduced viability of these prostate cancer cells by nearly half” and the “tumor cell killing, combination with VP-16” value is “more potent tumor cell killing compared to VP-16 alone”. For the same compound, the “Relative Potency (fold versus SMAC peptide)” value in series [3] amounted to 2.5. Further, the “activity in the caspase derepression assay using full length XIAP” value in series [4] was “activity”. Further, the LC (lowest concentration with a ratio of 2 or higher in the derepression assay) in series [4] (tested at 0.4, 2, 10 and 50) was 2 µg/mL.
As to `CCCC[C@@H](CNCc1ccccc1)N1C[C@@H](CC(C)C)N(CC(C)c2ccc(CC(C)C)cc2)C(=O)C1=O` (some centres unmarked) [TPI 1391-1], the “% nonviable cells” value in series [5] (1 µM) was determined as 18%; in series [5] (10 µM), 20%; in series [5] (25 µM) it was 69%; in series [5] (50 µM) it was 91%.
The like results for `CCCC[C@@H](CNCc1ccccc1)N1C[C@@H](CC(C)C)N(CCc2cccc(C(F)(F)F)c2)C(=O)C1=O` [TPI 1391-4] were, in that order, 20%, 48%, 90% and 86%.
The like results for `CCCC[C@@H](CNCc1ccccc1)N1C[C@@H](CC(C)C)N(CC2CCC(C(C)(C)C)CC2)C(=O)C1=O` (some centres unmarked) [TPI 1391-5] were, in that order, 17%, 36%, 88% and 88%.
Turning to `CCCC[C@H](CNCc1ccccc1)N1C[C@@H](CC(C)C)N(CC2CCC(C(C)(C)C)CC2)C(=O)C1=O` (some centres unmarked) [TPI 1391-17], the “% nonviable cells” value in series [5] (1 µM) is 13%; in series [5] (5 µM), 25%; in series [5] (10 µM), 45%; in series [5] (25 µM), 88%; in series [5] (50 µM), 91%.
As a reminder, the EC50 is the concentration giving half of the maximal effect. Regarding `CCCCCCCN1C(=O)C(=O)N([C@H](CCCC)CNCc2ccccc2)C[C@@H]1Cc1ccc2ccccc2c1` [TPI 1391-21], the “% nonviable cells” value in series [5] (1 µM) was found to be 16%; in series [5] (10 µM), 44%; in series [5] (25 µM) it was 91%; in series [5] (50 µM), 94%. The “Relative Potency (fold versus SMAC peptide)” value in series [3] was 3.7. Further, the EC50 in series [3] amounted to 33.6 µM.
With `CC(C)Cc1ccc(C(C)CN2C(=O)C(=O)N([C@H](CNCc3ccccc3)Cc3ccc4ccccc4c3)C[C@H]2CC(C)C)cc1` (some centres unmarked) [TPI 1391-25], the “% nonviable cells” value turned out to be 16% in series [5] (1 µM), 60% in series [5] (10 µM), 90% in series [5] (25 µM) and 87% in series [5] (50 µM).
In the case of `CC(C)C[C@@H]1CN([C@H](CNCc2ccccc2)Cc2ccc3ccccc3c2)C(=O)C(=O)N1CCc1cccc(C(F)(F)F)c1` [TPI 1391-28], the “% nonviable cells” value in series [5] (1 µM) was determined as 19%; in series [5] (10 µM) it was 55%; in series [5] (25 µM), 87%; in series [5] (50 µM) it was 91%. The cells killed result is “about 45%” in series [5] (5 μM) and ~80% in series [5] (8 μM). Further, the EC50 is ~6.5 µM in series [5] (one-day exposure, read-out: EC50 for killing Jurkat leukemia cells) and 25.1 µM in series [3]. Moreover, in series [3], the “Relative Potency (fold versus SMAC peptide)” value came to 5. The “toxicity to normal bone marrow cells” value in series [6] is reported as “little toxicity”.
Consider `O=C1C(=O)N([C@H](CNCc2ccccc2)Cc2ccc3ccccc3c2)C[C@H](Cc2ccc3ccccc3c2)N1CCc1cccc(C(F)(F)F)c1` [TPI 1391-34], for which, in series [3], the “Relative Potency (fold versus SMAC peptide)” value worked out at 3.3 and the EC50 stood at 39.4 µM.
For `COc1ccc(CCN(CCCC[C@@H](CN(C(=O)Nc2ccccc2)[C@@H](CNC(=O)Nc2ccccc2)CC2CCCCC2)N(C)C(=O)Nc2ccccc2)C(=O)Nc2ccccc2)cc1` [TPI 1396-25], in series [4], the “Activity* (relative caspase-3 activity: Vmax in the presence of compound / Vmax of controls having caspase-3 and XIAP)” value is listed as 1.6.
Same read-out and setting: the same measure for `COc1ccc(CCN(C(=O)Nc2ccccc2)[C@H](Cc2ccccc2)CN(C(=O)Nc2ccccc2)[C@@H](CNC(=O)Nc2ccccc2)CC2CCCCC2)cc1` [TPI 1396-31]: 1.3; for `O=C(NC[C@@H](CC1CCCCC1)N(C[C@@H]1CCCN1CCC12CC3CC(CC(C3)C1)C2)C(=O)Nc1ccccc1)Nc1ccccc1` [TPI 1396-35]: 2.5.
Take “(D-Nal)-(D-pClPhe)-(L-pClPhe)-(Lys-εFmoc) ([d2Nal][dPhe(4-Cl)][Phe(4-Cl)]K(Fmoc)) [TPI 792-9]”: the LC (lowest concentration with a ratio of 2 or higher in the derepression assay) in series [4] (tested at 0.4, 2, 10 and 50) was determined as 10 µg/mL.
For “(D-Nal)-(L-Nal)-(D-Lys-εFmoc)-(Lys-εFmoc) ([d2Nal][2Nal][dK](Fmoc)K(Fmoc)) [TPI 792-17]”, in series [4] (tested at 0.4, 2, 10 and 50), the LC (lowest concentration with a ratio of 2 or higher in the derepression assay) is 2 µg/mL.
For the compound “(D-Nal)-(L-Nal)-(L-pClPhe)-(Lys-εFmoc) ([d2Nal][2Nal][Phe(4-Cl)]K(Fmoc)) [TPI 792-15]”, in series [4] (tested at 0.4, 2, 10 and 50), the LC (lowest concentration with a ratio of 2 or higher in the derepression assay) is 2 µg/mL.
Same read-out and setting: the same measure for “(D-Nal)-(Lys-εFmoc)-(L-pClPhe)-(Lys-εFmoc) ([d2Nal]K(Fmoc)[Phe(4-Cl)]K(Fmoc)) [TPI 792-3]”: 2 µg/mL.
As to “(L-Ala)-(D-Trp)-(L-Trp)-(L-ThiAla) (A[dW]W[2Thi]) [TPI 1332-47]”, the “reversing XIAP-mediated suppression of caspase 3” value in series [4] is “Active”.
Still for that read-out and setting: the value for “(L-Ala)-(L-Trp)-(L-Trp)-(L-ThiAla) (AWW[2Thi]) [TPI 1332-1]” was “Active”; that for “(L-Cha)-(D-Nal)-(L-Trp)-(L-ThiAla) ([Cha][d2Nal]W[2Thi]) [TPI 1332-41]” was “Active”.
As to “(L-ThiAla)-(D-pClPhe)-(L-pClPhe)-(Lys-εFmoc) ([2Thi][dPhe(4-Cl)][Phe(4-Cl)]K(Fmoc)) [TPI 792-27]”, the LC (lowest concentration with a ratio of 2 or higher in the derepression assay) in series [4] (tested at 0.4, 2, 10 and 50) was found to be 2 µg/mL.
Same read-out and setting: the value for “(L-ThiAla)-(Lys-εFmoc)-(D-Nal)-(Lys-εFmoc) ([2Thi]K(Fmoc)[d2Nal]K(Fmoc)) [TPI 792-19]” was 2 µg/mL; that for “(L-ThiAla)-(Lys-εFmoc)-(L-pClPhe)-(pF-D-F) ([2Thi]K(Fmoc)[Phe(4-Cl)][dPhe(4-F)]) [TPI 792-22]” was 2 µg/mL.
